# Activity calls are given as the source filed them. How the calls were made is not given here.
# Test system: CCRIS mutagenicity, Ames/micronucleus/aberration tests
# Experiment: CCRIS mutagenicity studies
# [1] = Test System: AMES SALMONELLA TYPHIMURIUM, Strain/Indicator: TA100, Metabolic Activation: NONE, Method: STANDARD PLATE
# [2] = Test System: AMES SALMONELLA TYPHIMURIUM, Strain/Indicator: TA98, Metabolic Activation: NONE, Method: STANDARD PLATE
# [3] = Test System: AMES SALMONELLA TYPHIMURIUM, Strain/Indicator: TA1535, Metabolic Activation: NONE, Method: STANDARD PLATE
# [4] = Test System: AMES SALMONELLA TYPHIMURIUM, Strain/Indicator: TA1538, Metabolic Activation: NONE, Method: STANDARD PLATE
smiles,measurement,setting,value
NO,mutagenic call,"Test System: AMES SALMONELLA TYPHIMURIUM, Strain/Indicator: TA97, Metabolic Activation: HAMSTER, LIVER, S-9, AROCLOR 1254 (10 OR 30%), Method: PREINCUBATION",inactive; negative
same,mutagenic call,"Test System: AMES SALMONELLA TYPHIMURIUM, Strain/Indicator: TA97, Metabolic Activation: NONE, Method: PREINCUBATION",inactive; negative
same,mutagenic call,"Test System: AMES SALMONELLA TYPHIMURIUM, Strain/Indicator: TA97, Metabolic Activation: RAT, LIVER, S-9, AROCLOR 1254 (10 OR 30%), Method: PREINCUBATION",inactive; negative
same,mutagenic call,"Test System: AMES SALMONELLA TYPHIMURIUM, Strain/Indicator: TA98, Metabolic Activation: HAMSTER, LIVER, S-9, AROCLOR 1254 (10%), Method: PREINCUBATION",inactive; negative
same,mutagenic call,"Test System: AMES SALMONELLA TYPHIMURIUM, Strain/Indicator: TA98, Metabolic Activation: HAMSTER, LIVER, S-9, AROCLOR 1254 (30%), Method: PREINCUBATION",inactive; negative
same,mutagenic call,"Test System: AMES SALMONELLA TYPHIMURIUM, Strain/Indicator: TA98, Metabolic Activation: NONE, Method: PREINCUBATION",inactive; negative
same,mutagenic call,"Test System: AMES SALMONELLA TYPHIMURIUM, Strain/Indicator: TA98, Metabolic Activation: RAT, LIVER, S-9, AROCLOR 1254 (10%), Method: PREINCUBATION",inactive; negative
same,mutagenic call,"Test System: AMES SALMONELLA TYPHIMURIUM, Strain/Indicator: TA98, Metabolic Activation: RAT, LIVER, S-9, AROCLOR 1254 (30%), Method: PREINCUBATION",inactive; negative
same,mutagenic call,"Test System: AMES SALMONELLA TYPHIMURIUM, Strain/Indicator: TA100, Metabolic Activation: HAMSTER, LIVER, S-9, AROCLOR 1254 (10%), Method: PREINCUBATION",inactive; negative
same,mutagenic call,"Test System: AMES SALMONELLA TYPHIMURIUM, Strain/Indicator: TA100, Metabolic Activation: HAMSTER, LIVER, S-9, AROCLOR 1254 (30%), Method: PREINCUBATION",inactive; negative
same,mutagenic call,"Test System: AMES SALMONELLA TYPHIMURIUM, Strain/Indicator: TA100, Metabolic Activation: NONE, Method: PREINCUBATION",inactive; negative
same,mutagenic call,"Test System: AMES SALMONELLA TYPHIMURIUM, Strain/Indicator: TA100, Metabolic Activation: RAT, LIVER, S-9, AROCLOR 1254 (10 OR 30%), Method: PREINCUBATION",inactive; negative
same,mutagenic call,"Test System: AMES SALMONELLA TYPHIMURIUM, Strain/Indicator: TA102, Metabolic Activation: RAT, LIVER, S-9, AROCLOR 1254, Method: STANDARD PLATE",inactive; negative
same,mutagenic call,"Test System: AMES SALMONELLA TYPHIMURIUM, Strain/Indicator: TA1535, Metabolic Activation: HAMSTER, LIVER, S-9, AROCLOR 1254 (10 OR 30%), Method: PREINCUBATION",inactive; negative
same,mutagenic call,"Test System: AMES SALMONELLA TYPHIMURIUM, Strain/Indicator: TA1535, Metabolic Activation: NONE, Method: PREINCUBATION",inactive; negative
same,mutagenic call,"Test System: AMES SALMONELLA TYPHIMURIUM, Strain/Indicator: TA1535, Metabolic Activation: RAT, LIVER, S-9, AROCLOR 1254 (10 OR 30%), Method: PREINCUBATION",inactive; negative
same,mutagenic call,"Test System: MOUSE LYMPHOMA, Strain/Indicator: L5178Y (TK+/TK-), Metabolic Activation: NONE, Method: SUSPENSION/PLATE",active; positive
same,mutagenic call,"Test System: MOUSE LYMPHOMA, Strain/Indicator: L5178Y (TK+/TK-), Metabolic Activation: RAT, LIVER, S-9, AROCLOR 1254, Method: SUSPENSION/PLATE",active; positive
COc1nsc2c([N+](=O)[O-])cccc12,mutagenic call,[1],active; positive
CC1=C[C@H](O)[C@H]2C[C@@H]1C2(C)C,mutagenic call,[2],inactive; negative
same,mutagenic call,"Test System: AMES SALMONELLA TYPHIMURIUM, Strain/Indicator: TA98, Metabolic Activation: RAT, LIVER, S-9, Method: STANDARD PLATE",inactive; negative
same,mutagenic call,[1],inactive; negative
same,mutagenic call,"Test System: AMES SALMONELLA TYPHIMURIUM, Strain/Indicator: TA100, Metabolic Activation: RAT, LIVER, S-9, Method: STANDARD PLATE",inactive; negative
same,mutagenic call,[3],inactive; negative
same,mutagenic call,"Test System: AMES SALMONELLA TYPHIMURIUM, Strain/Indicator: TA1535, Metabolic Activation: RAT, LIVER, S-9, Method: STANDARD PLATE",inactive; negative
same,mutagenic call,[4],inactive; negative
same,mutagenic call,"Test System: AMES SALMONELLA TYPHIMURIUM, Strain/Indicator: TA1538, Metabolic Activation: RAT, LIVER, S-9, Method: STANDARD PLATE",inactive; negative
O=C1N=NC(=O)C2C=CC=CC12 (centres undefined),mutagenic call,"Test System: AMES SALMONELLA TYPHIMURIUM, Strain/Indicator: TA98, Metabolic Activation: HAMSTER, LIVER, S-9, AROCLOR 1254, Method: STANDARD PLATE",inactive; negative
same,mutagenic call,[2],inactive; negative
same,mutagenic call,"Test System: AMES SALMONELLA TYPHIMURIUM, Strain/Indicator: TA98, Metabolic Activation: RAT, LIVER, S-9, AROCLOR 1254, Method: STANDARD PLATE",inactive; negative
same,mutagenic call,"Test System: AMES SALMONELLA TYPHIMURIUM, Strain/Indicator: TA100, Metabolic Activation: HAMSTER, LIVER, S-9, AROCLOR 1254, Method: STANDARD PLATE",inactive; negative
same,mutagenic call,[1],inactive; negative
same,mutagenic call,"Test System: AMES SALMONELLA TYPHIMURIUM, Strain/Indicator: TA100, Metabolic Activation: RAT, LIVER, S-9, AROCLOR 1254, Method: STANDARD PLATE",inactive; negative
same,mutagenic call,"Test System: AMES SALMONELLA TYPHIMURIUM, Strain/Indicator: TA1535, Metabolic Activation: HAMSTER, LIVER, S-9, AROCLOR 1254, Method: STANDARD PLATE",inactive; negative
same,mutagenic call,[3],inactive; negative
same,mutagenic call,"Test System: AMES SALMONELLA TYPHIMURIUM, Strain/Indicator: TA1535, Metabolic Activation: RAT, LIVER, S-9, AROCLOR 1254, Method: STANDARD PLATE",inactive; negative
same,mutagenic call,"Test System: AMES SALMONELLA TYPHIMURIUM, Strain/Indicator: TA1537, Metabolic Activation: HAMSTER, LIVER, S-9, AROCLOR 1254, Method: STANDARD PLATE",inactive; negative
same,mutagenic call,"Test System: AMES SALMONELLA TYPHIMURIUM, Strain/Indicator: TA1537, Metabolic Activation: NONE, Method: STANDARD PLATE",inactive; negative
same,mutagenic call,"Test System: AMES SALMONELLA TYPHIMURIUM, Strain/Indicator: TA1537, Metabolic Activation: RAT, LIVER, S-9, AROCLOR 1254, Method: STANDARD PLATE",inactive; negative
same,mutagenic call,"Test System: AMES SALMONELLA TYPHIMURIUM, Strain/Indicator: TA1538, Metabolic Activation: HAMSTER, LIVER, S-9, AROCLOR 1254, Method: STANDARD PLATE",inactive; negative
same,mutagenic call,[4],inactive; negative
same,mutagenic call,"Test System: AMES SALMONELLA TYPHIMURIUM, Strain/Indicator: TA1538, Metabolic Activation: RAT, LIVER, S-9, AROCLOR 1254, Method: STANDARD PLATE",inactive; negative
same,mutagenic call,"Test System: Mouse lymphoma, Strain/Indicator: L5178Y (tk+/tk-), Metabolic Activation: None, Method: Suspension/plate",inactive; negative
same,mutagenic call,"Test System: Mouse lymphoma, Strain/Indicator: L5178Y (tk+/tk-), Metabolic Activation: Rat, liver, S-9, Aroclor 1254, Method: Suspension/plate",active; positive

# — PubChem BioAssay AID1259407 (Chemical Carcinogenesis Research Information System (CCRIS), 2018)
